Literature values as cited in US9956241B2, “Application of American Ginseng to enhance neurocognitive function” (priority 2009, dated 2018).

What was measured:
[1] = test system: brain serotonin concentrations; settings: in vivo
[2] = test system: choline acetyltransferase; settings: rodent brains
[3] = test system: central cholinergic nerve endings
[4] = test system: choline acetyltransferase and nerve growth factor messenger RNA; settings: rat brains
[5] = test system: LTP in the hippocampal formation; settings: in vivo; rats
plasma corticosterone = settings: rodents
[6] = test system: human neuronal nicotinic acetylcholine receptors
[7] = test system: synaptosomal uptake of norepinephrine, dopamine, serotonin and GABA

CC(C)=CCC[C@](C)(O[C@@H]1O[C@H](CO)[C@@H](O)[C@H](O)[C@H]1O)[C@H]1CC[C@]2(C)[C@@H]1[C@H](O)C[C@@H]1[C@@]3(C)CC[C@H](O)C(C)(C)[C@@H]3[C@@H](O[C@@H]3O[C@H](CO)[C@@H](O)[C@H](O)[C@H]3O)C[C@]12C [Rg1, ginsenoside Rg1]
brain serotonin concentrations [1]: marked alterations
choline acetyltransferase levels [2]: increase choline acetyltransferase levels

CC(C)=CCC[C@](C)(O[C@@H]1O[C@H](CO[C@@H]2O[C@H](CO)[C@@H](O)[C@H](O)[C@H]2O)[C@@H](O)[C@H](O)[C@H]1O)[C@H]1CC[C@]2(C)[C@@H]1[C@H](O)C[C@@H]1[C@@]3(C)CC[C@H](O[C@@H]4O[C@H](CO)[C@@H](O)[C@H](O)[C@H]4O[C@@H]4O[C@H](CO)[C@@H](O)[C@H](O)[C@H]4O)C(C)(C)[C@@H]3CC[C@]12C [Rb1, ginsenoside Rb1]
acetylcholine release and reuptake, number of choline uptake sites ([3]; hippocampus, to a lesser extent cortex): modulation
acetylcholine release ([3]; isolated Rb1): stimulate acetylcholine release
synaptosomal choline uptake ([3]; isolated Rb1): increase synaptosomal choline uptake
brain serotonin concentrations [1]: marked alterations
expression of choline acetyltransferase and nerve growth factor messenger RNA [4]: increased expression
LTP in the hippocampal formation [5]: modulation of LTP
stress-induced increases in plasma corticosterone (plasma corticosterone): inhibit
choline acetyltransferase levels [2]: increase choline acetyltransferase levels

CC(C)=CCC[C@](C)(O)[C@H]1CC[C@]2(C)[C@@H]1[C@H](O)C[C@@H]1[C@@]3(C)CC[C@H](O)C(C)(C)[C@@H]3[C@@H](O[C@@H]3O[C@H](CO)[C@@H](O)[C@H](O)[C@H]3O[C@@H]3O[C@@H](C)[C@H](O)[C@@H](O)[C@H]3O)C[C@]12C [Rg2, ginsenoside Rg2]
interaction with nicotinic receptor subtypes [6]: direct interaction

CC(C)=CCC[C@](C)(O[C@@H]1O[C@H](CO)[C@@H](O)[C@H](O)[C@H]1O)[C@H]1CC[C@]2(C)[C@@H]1[C@H](O)C[C@@H]1[C@@]3(C)CC[C@H](O)C(C)(C)[C@@H]3[C@@H](O[C@@H]3O[C@H](CO)[C@@H](O)[C@H](O)[C@H]3O[C@@H]3O[C@@H](C)[C@H](O)[C@@H](O)[C@H]3O)C[C@]12C [Re, ginsenoside Re]
synaptosomal uptake of norepinephrine, dopamine, serotonin and GABA [7]: may inhibit

CC(C)=CCC[C@](C)(O[C@@H]1O[C@H](CO)[C@@H](O)[C@H](O)[C@H]1O)[C@H]1CC[C@]2(C)[C@@H]1[C@H](O)C[C@@H]1[C@@]3(C)CC[C@H](O[C@@H]4O[C@H](CO)[C@@H](O)[C@H](O)[C@H]4O[C@@H]4O[C@H](CO)[C@@H](O)[C@H](O)[C@H]4O)C(C)(C)[C@@H]3CC[C@]12C [Rd, ginsenoside Rd]
corticosterone secretion (corticosterone secretion): affect corticosterone secretion
synaptosomal uptake of norepinephrine, dopamine, serotonin and GABA [7]: may inhibit
